# How the values were obtained:
# [1] = system: Pan troglodytes; test: Natriuretic activity in chimpanzee assessed as per min at 5 mg/kg, po; format: functional
# [2] = system: Rattus norvegicus; test: Natriuretic activity in rat assessed as per cage at 27 mg/kg, po; format: functional
# [3] = system: Rattus norvegicus; test: Natriuretic activity in rat assessed as per cage at 81 mg/kg, po; format: functional
# [4] = system: Canis familiaris; test: Diuretic activity in dog assessed as sodium level in urine per min at 5 mg/kg, iv relative to control; format: functional, Canis lupus familiaris
# [5] = system: Rattus norvegicus; test: Natriuretic activity in rat assessed as per cage at 9 mg/kg, po; format: functional
# [6] = system: Pan troglodytes; test: Natriuretic activity in chimpanzee assessed as change in Curate to Cinsulin ratio at 5 mg/kg, po; format: functional
# [7] = system: Rattus norvegicus; test: Natriuretic activity in rat assessed as per cage at 3 mg/kg, po; format: functional
# [8] = system: Canis familiaris; test: Diuretic activity in dog assessed as […] urine volume at 5 mg/kg, iv relative to control; format: functional, Canis lupus familiaris
# [9] = system: Canis familiaris; test: Diuretic activity in dog assessed as chloride level in urine per min at 5 mg/kg, iv relative to control; format: functional, Canis lupus familiaris
# [10] = system: Canis familiaris; test: Diuretic activity in dog assessed as chloride level in urine per min at 1 mg/kg, iv relative to control; format: functional, Canis lupus familiaris
# [11] = system: Canis familiaris; test: Diuretic activity in dog assessed as […] urine volume at 1 mg/kg, iv relative to control; format: functional, Canis lupus familiaris
# [12] = system: Canis familiaris; test: Diuretic activity in dog assessed as potassium level in urine per min at 1 mg/kg, iv relative to control; format: functional, Canis lupus familiaris
# [13] = system: Canis familiaris; test: Diuretic activity in dog assessed as sodium level in urine per min at 1 mg/kg, iv relative to control; format: functional, Canis lupus familiaris
SMILES,Activity [1] [uEq],Activity [2] [mEq],Activity [3] [mEq],Activity [4] [µEq/min],Activity [5] [mEq],Ratio [6],Activity [7] [mEq],Activity [8] [mL],Activity [9] [µEq/min],other results
Cc1c(OCC(=O)O)cc2c(c1Cl)C(=O)C(C)(c1ccccc1)C2 (configuration not stated),479,1.38,1.62,226,1.16,0.31,1.35,4,262,–
CC1(c2ccc(Br)cc2)Cc2cc(OCC(=O)O)c(Cl)c(Cl)c2C1=O (configuration not stated),27,0.27,0.42,96,0.29,0.01,0.21,3,34,–
CC1(c2ccc(S(N)(=O)=O)cc2)Cc2cc(OCC(=O)O)c(Cl)c(Cl)c2C1=O (configuration not stated),674,0.86,–,–,0.29,0,0.32,–,–,–
CC1(c2ccc(N)cc2)Cc2cc(OCC(=O)O)c(Cl)c(Cl)c2C1=O (configuration not stated),244,0.98,1.34,1130,0.53,0.1,0.33,10,1180,–
CC1(c2ccccc2)Cc2cc(OCc3nnn[nH]3)c(Cl)c(Cl)c2C1=O (configuration not stated),44,0.2,0.4,279,0.17,0.09,0.28,3,245,–
CC(=O)c1ccc(C2(C)Cc3cc(OCC(=O)O)c(Cl)c(Cl)c3C2=O)cc1 (configuration not stated),608,0.81,1.63,–,0.62,0.08,0.49,–,–,–
O=C(O)COc1cc2c(c(Cl)c1Cl)C(=O)C(c1ccccc1)(C1CCCC1)C2 (configuration not stated),47,0.31,0.35,11,0.4,0,0.79,0.8,0.9,–
O=C(O)COc1cc2c(c(Cl)c1Cl)C(=O)C(c1ccccc1)(c1ccccc1)C2,19,1.09,0.95,44,0.93,0.03,0.4,2,5,–
CC1(c2ccc(F)cc2)Cc2cc(OCC(=O)O)c(Cl)c(Cl)c2C1=O (configuration not stated),310,1.23,1.73,352,0.86,0.43,1.01,3,362,–
CC1(c2ccc(Cl)cc2)Cc2cc(OCC(=O)O)c(Cl)c(Cl)c2C1=O (configuration not stated),302,0.25,0.37,305,0.3,0.25,0.21,6,282,–
CC1(c2ccc(CN)cc2)Cc2cc(OCC(=O)[O-])c(Cl)c(Cl)c2C1=O.[Na+] (configuration not stated),135,0.27,0.19,497,0.17,0,0.18,5,424,–
"CC1(c2ccccc2)Cc2cc(OCC(=O)O)c(Cl)c(Cl)c2C1=O (single isomer, unassigned; (-)) [INDACRINONE]",–,–,–,–,–,–,–,–,–,Activity ([1]; 5 mg/kg): 743 uEq; Activity ([2]; 27 mg/kg): 1.79 mEq; Activity ([3]; 81 mg/kg): 2.71 mEq; Activity ([4]; 5 mg/kg): 314 µEq/min; Activity ([5]; 9 mg/kg): 1.21 mEq; Ratio ([6]; 5 mg/kg): 0.28; Activity ([7]; 3 mg/kg): 1.01 mEq; Activity ([9]; 5 mg/kg): 360 µEq/min
CCCN(CCC)S(=O)(=O)c1ccc(C(=O)O)cc1 [PROBENECID],–,–,–,–,–,0.05,–,–,–,–
NS(=O)(=O)c1cc2c(cc1Cl)NCNS2(=O)=O [HYDROCHLOROTHIAZIDE],144,–,–,166,1.12,–,–,3,156,–
CC1(c2ccccc2)Cc2cc(OCC(=O)O)c(Cl)c(Cl)c2C1=O (racemic) [INDACRINONE],–,–,–,–,–,–,–,–,–,Activity ([1]; 5 mg/kg): 409 uEq; Activity ([2]; 27 mg/kg): 1.29 mEq; Activity ([3]; 81 mg/kg): 1.89 mEq; Activity ([4]; 5 mg/kg): 920 µEq/min; Activity ([5]; 9 mg/kg): 0.97 mEq; Ratio ([6]; 5 mg/kg): 0.38; Activity ([7]; 3 mg/kg): 0.86 mEq; Activity ([8]; 5 mg/kg): 8 mL; Activity ([9]; 5 mg/kg): 1010 µEq/min
CC1(c2ccc([N+](=O)[O-])cc2)Cc2cc(OCC(=O)O)c(Cl)c(Cl)c2C1=O (configuration not stated),176,1.68,1.98,751,1.02,0.03,0.89,8,810,–
CCC1(c2ccccc2)Cc2cc(OCC(=O)O)c(Cl)c(Cl)c2C1=O (configuration not stated),369,1.19,1.34,431,1.15,0.12,0.75,4,396,–
"CC1(c2ccccc2)Cc2cc(OCC(=O)O)c(Cl)c(Cl)c2C1=O (single isomer, unassigned; (+)) [INDACRINONE]",–,–,–,–,–,–,–,–,–,Activity ([1]; 5 mg/kg): 221 uEq; Activity ([2]; 27 mg/kg): 0.71 mEq; Activity ([3]; 81 mg/kg): 0.88 mEq; Activity ([4]; 5 mg/kg): 221 µEq/min; Activity ([5]; 9 mg/kg): 0.38 mEq; Ratio ([6]; 5 mg/kg): 0.16; Activity ([7]; 3 mg/kg): 0.77 mEq; Activity ([8]; 5 mg/kg): 4 mL; Activity ([9]; 5 mg/kg): 304 µEq/min
CC1(c2cccs2)Cc2cc(OCC(=O)O)c(Cl)c(Cl)c2C1=O (configuration not stated),416,1.41,1.77,503,0.79,0.47,0.46,5,598,–
CC1(c2ccc(O)cc2)Cc2cc(OCC(=O)O)c(Cl)c(Cl)c2C1=O (configuration not stated),151,0.35,–,1260,0.33,0.02,0.17,10,1460,–
NS(=O)(=O)c1cc(C(=O)O)c(NCc2ccco2)cc1Cl [FUROSEMIDE],1035,1.25,2.44,–,0.07,-0.02,–,–,–,Activity [10]: 1080 µEq/min; Activity [11]: 3 mL; Activity [12]: 141 milliequivalent; Activity [13]: 960 milliequivalent
COc1ccc(C2(C)Cc3cc(OCC(=O)O)c(Cl)c(Cl)c3C2=O)cc1 (configuration not stated),459,1.29,–,–,0.76,0.01,0.45,–,–,–
O=C(O)COc1cc2c(c(Cl)c1Cl)C(=O)C1(c3ccccc3)CCCCC21 (configuration not stated),137,0.86,1.17,276,0.65,0.08,0.47,4,211,–

# — ChEMBL document CHEMBL3243997, “(Acylaryloxy)acetic acid diuretics. 2. (2-Alkyl-2-aryl-1-oxo-5-indanyloxy)acetic acids” (1978)
